Measured values from US20240059695A1, “SUBSTITUTED IMIDAZO[1,5-b]PYRIDAZINE COMPOUNDS AS KINASE INHIBITORS AND USE THEREOF” (IMPACT THERAPEUTICS (SHANGHAI), INC, priority 2020, published 2024).
Read-outs that look alike come from different tables or passages of the source.

Tests used:
[1] = target: T1, ATR/ATRIP enzyme (Homo sapiens, UniProt Q13535); test: ATR enzyme activity experiment (HTRF); type: biochemical; details: p53 substrate, 30 min room temperature, read-out: IC50 (nM), inhibitory effect on ATR kinase activity
T1 construct: purchased Eurofins 14-953
Experimental: The mixture was centrifuged at 1000 rpm for 1 minute, and reacted at room temperature protected from light for 30 minutes. Then 5 μL of EDTA stop solution (250 mM) was added to stop the reaction.

[2] = tested on: human lung cancer NCI-H460 cell; test: MTT proliferation assay, NCI-H460; type: cell-based; details: NCI-H460, 96 h, MTT, 4 days, read-out: IC50 (nM), proliferation of NCI-H460 cell
Experimental: The cells were digested by trypsinase and centrifuged at 800 rpm for 5 minutes, the supernatant was discarded, and the residual was resuspended with fresh medium […]) and counted.
(§1) The cells were seeded into 96-well cell culture plate with a density of 2000/4000 cells per well and incubated overnight in a 5% CO2 incubator at 37° C. […] 5 μL diluent of each concentration was added to 120 μL of medium (25 times diluted) and mixed by shaking. The overnight cell plates were taken and the culture medium was removed, 195 μL of fresh medium was added to each well, and 5 μL of diluted medium containing the corresponding concentration of the test compound was added respectively (the final concentration of DMSO is 1%), and the culture plate was then placed in a 5% CO2 incubator at 37° C. for 4 days. After removing the original solution, 100 μL of fresh serum-free DMEM medium containing MTT (0.5 mg/mL) was added to each well, the culture was continued. […] Cell viability (%)=(ODcompound−ODbackground)/(ODDMSO−ODbackground)×100. GraphPad Prism 6.0 was used to analyze the data. The inhibitory activity of compounds on cell proliferation was plotted based on cell viability and the logarithm of compound concentration. The IC50 value was fitted by a sigmoidal dose response curve equation Y−100/(1+10^(LogC−LogIC50)), wherein C was the concentration of compound.

[3] = tested on: human colon cancer LoVo cell; test: MTT proliferation assay, LoVo; type: cell-based; details: MTT, 4 days, read-out: IC50 (nM), proliferation of LoVo cell
Experimental: as §1, with “[…]” for “100 μL”, “viability (%)=(ODcompound−ODbackground)/ODDMSO−ODbackground)×100.” for “viability (%)=(ODcompound−ODbackground)/(ODDMSO−ODbackground)×100.”, “The IC5.0” for “The IC50”, “equation Y=100/(1+10^(LogC-LogIC50)),” for “equation Y−100/(1+10^(LogC−LogIC50)),”

[4] = Pharmacokinetics following single oral administration to mice; type: in vivo; details: mouse, CD-1 (ICR) mice, gavage 10 mg/kg, 0.5% methylcellulose/water suspension, plasma
Experimental: The compound of the present invention was formulated into a 0.5% methylcellulose/water uniform suspension, and was administered to CD-1 (ICR) mice by gavage at 10 mg/kg. Plasma samples were collected at 8 time points of 0.250, 0.500, 1.00, 2.00, 4.00, 6.00, 8.00 and 24.0 hours post-dose. Concentrations of the compound were determined by LC-MS/MS method.

T1 sequence (Q13535 whole entry): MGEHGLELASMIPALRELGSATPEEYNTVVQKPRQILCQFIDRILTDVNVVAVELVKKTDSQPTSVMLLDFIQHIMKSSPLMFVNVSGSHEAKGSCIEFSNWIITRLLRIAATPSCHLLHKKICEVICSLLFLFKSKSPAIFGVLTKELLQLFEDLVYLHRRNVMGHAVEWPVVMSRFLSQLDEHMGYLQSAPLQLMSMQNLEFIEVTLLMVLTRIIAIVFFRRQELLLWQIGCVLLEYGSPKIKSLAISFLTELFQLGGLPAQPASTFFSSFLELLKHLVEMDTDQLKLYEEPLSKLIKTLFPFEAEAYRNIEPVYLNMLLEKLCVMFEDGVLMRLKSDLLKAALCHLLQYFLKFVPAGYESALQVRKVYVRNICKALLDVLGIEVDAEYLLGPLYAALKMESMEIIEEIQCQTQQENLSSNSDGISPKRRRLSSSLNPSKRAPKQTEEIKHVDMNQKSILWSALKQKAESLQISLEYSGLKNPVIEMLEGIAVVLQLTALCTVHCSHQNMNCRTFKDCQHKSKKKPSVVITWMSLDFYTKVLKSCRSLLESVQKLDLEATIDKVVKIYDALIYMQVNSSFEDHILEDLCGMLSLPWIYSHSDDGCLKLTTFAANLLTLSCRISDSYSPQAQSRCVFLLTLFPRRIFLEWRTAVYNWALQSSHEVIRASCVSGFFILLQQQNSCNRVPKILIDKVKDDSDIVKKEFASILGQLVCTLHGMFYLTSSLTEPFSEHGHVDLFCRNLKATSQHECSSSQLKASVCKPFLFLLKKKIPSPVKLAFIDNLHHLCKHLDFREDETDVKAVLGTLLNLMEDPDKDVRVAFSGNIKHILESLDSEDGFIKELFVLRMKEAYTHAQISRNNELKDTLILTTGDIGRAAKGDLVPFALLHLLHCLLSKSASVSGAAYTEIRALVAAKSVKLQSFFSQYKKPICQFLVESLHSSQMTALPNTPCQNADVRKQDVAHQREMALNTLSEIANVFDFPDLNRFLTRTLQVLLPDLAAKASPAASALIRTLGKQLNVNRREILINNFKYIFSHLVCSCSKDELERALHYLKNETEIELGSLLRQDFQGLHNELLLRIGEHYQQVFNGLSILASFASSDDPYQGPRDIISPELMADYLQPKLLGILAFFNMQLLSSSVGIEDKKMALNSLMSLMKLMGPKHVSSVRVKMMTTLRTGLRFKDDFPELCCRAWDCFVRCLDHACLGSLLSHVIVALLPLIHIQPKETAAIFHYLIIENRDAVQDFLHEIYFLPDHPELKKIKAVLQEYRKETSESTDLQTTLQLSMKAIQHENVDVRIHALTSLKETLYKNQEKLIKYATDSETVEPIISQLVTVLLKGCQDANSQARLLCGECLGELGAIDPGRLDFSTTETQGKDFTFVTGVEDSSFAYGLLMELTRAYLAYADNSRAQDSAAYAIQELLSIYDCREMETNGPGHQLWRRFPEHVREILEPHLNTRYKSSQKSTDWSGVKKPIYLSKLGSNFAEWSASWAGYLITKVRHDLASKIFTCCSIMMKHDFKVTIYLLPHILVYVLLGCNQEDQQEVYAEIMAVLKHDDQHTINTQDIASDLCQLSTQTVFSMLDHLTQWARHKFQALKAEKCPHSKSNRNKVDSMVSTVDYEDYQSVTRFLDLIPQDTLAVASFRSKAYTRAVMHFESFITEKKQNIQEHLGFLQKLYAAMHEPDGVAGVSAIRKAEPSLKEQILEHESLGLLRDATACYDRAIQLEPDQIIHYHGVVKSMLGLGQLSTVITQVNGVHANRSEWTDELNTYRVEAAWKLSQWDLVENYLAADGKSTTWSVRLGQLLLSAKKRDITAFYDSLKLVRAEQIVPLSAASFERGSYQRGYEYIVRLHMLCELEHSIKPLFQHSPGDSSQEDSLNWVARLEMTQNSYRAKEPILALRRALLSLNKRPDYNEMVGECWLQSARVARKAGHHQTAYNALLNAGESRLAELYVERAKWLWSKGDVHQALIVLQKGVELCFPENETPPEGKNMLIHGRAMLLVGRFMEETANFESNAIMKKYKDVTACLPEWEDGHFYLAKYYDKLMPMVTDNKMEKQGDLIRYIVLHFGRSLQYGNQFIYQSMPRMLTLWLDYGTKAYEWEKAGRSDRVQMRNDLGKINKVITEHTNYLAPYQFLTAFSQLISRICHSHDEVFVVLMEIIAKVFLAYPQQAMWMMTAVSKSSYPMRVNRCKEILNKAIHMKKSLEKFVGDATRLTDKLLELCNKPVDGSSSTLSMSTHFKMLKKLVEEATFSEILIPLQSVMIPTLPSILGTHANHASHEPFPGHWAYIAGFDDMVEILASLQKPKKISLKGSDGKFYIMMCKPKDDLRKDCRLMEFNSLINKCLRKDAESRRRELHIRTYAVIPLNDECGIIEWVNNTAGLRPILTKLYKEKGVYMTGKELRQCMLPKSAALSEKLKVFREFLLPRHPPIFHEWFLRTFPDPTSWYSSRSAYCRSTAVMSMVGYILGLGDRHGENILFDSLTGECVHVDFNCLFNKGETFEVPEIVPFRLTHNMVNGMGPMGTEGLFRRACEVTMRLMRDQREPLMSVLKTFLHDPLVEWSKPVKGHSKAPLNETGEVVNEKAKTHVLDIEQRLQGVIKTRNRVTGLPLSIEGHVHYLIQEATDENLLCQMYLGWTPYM
T1 sequence (Q8WXE1 whole entry partner): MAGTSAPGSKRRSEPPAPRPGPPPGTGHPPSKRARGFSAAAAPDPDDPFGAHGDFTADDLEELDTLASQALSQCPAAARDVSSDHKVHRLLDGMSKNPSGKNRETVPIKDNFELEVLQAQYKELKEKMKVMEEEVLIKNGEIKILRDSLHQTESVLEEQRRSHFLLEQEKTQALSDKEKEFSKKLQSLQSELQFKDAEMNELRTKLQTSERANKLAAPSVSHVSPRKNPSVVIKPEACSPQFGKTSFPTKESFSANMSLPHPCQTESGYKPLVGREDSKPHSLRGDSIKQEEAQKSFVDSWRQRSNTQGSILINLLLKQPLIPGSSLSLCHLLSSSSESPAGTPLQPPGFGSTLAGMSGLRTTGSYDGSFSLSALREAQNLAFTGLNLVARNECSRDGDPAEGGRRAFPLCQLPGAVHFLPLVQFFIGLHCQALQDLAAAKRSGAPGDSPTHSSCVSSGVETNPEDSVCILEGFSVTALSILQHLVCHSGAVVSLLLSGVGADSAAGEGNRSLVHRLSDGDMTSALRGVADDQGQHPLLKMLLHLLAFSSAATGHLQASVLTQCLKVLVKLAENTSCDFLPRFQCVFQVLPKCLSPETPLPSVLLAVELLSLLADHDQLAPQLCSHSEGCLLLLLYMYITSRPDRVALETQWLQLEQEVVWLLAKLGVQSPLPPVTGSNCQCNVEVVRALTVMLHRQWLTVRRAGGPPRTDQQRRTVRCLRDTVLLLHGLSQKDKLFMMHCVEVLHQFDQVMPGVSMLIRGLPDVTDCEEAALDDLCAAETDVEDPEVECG

SMILES	IC50 [1] [nM]	IC50 [2] [nM]	IC50 ([3]; Homo sapiens, LoVo, 96 h) [nM]	AUC(0-inf) [4] [ng·h/mL]	AUC(0-t) [4] [ng·h/mL]	Cmax [4] [ng/mL]	half-life [4] [h]	IC50 [3] [nM]
Cc1nc(-c2ccn[nH]2)n2nc(N3CCOC[C@H]3C)cc(-c3cccc(C#N)c3)c12 [Example 6, (R)-3-(5-methyl-2-(3-methylmorpholino)-7-(1H-pyrazol-5-yl)imidazol, [1,5-b]pyridazin-4-yl)benzonitrile]	5	21.8	44.1	–	–	–	–	–
Cc1nc(-c2ccn[nH]2)n2nc(N3CCOC[C@H]3C)cc(-c3ccnn3C(C)C)c12 [Example 9, (R)-4-(4-(1-isopropyl-1H-pyrazol-5-yl)-5-methyl-7-(1H-pyrazol-5-yl)imidazo[1,5-b]pyridazin-2-yl)-3-methylmorpholine]	3	30.2	39.3	–	–	–	–	–
Cc1nc(-c2ccn[nH]2)n2nc(N3CCOC[C@H]3C)cc(-c3ccn(C(F)F)n3)c12 [Example 10, (R)-4-(4-(1-(difluoromethyl)-1H-pyrazol-3-yl)-5-methyl-7-(1H-pyrazol-5-yl)imidazo[1,5-b]pyridazin-2-yl)-3-methylmorpholine]	217	97.3	116	–	–	–	–	–
Cc1cnn(C)c1-c1cc(N2CCOC[C@H]2C)nn2c(-c3ccn[nH]3)nc(C)c12 [Example 11, (R)-4-(4-(1,4-dimethyl-1H-pyrazol-5-yl)-5-methyl-7-(1H-pyrazol-5-yl)imidazo[1,5-b]pyridazin-2-yl)-3-methylmorpholine]	2	30.1	–	–	–	–	–	–
Cc1nc(-c2ccn[nH]2)n2nc(N3CCOC[C@H]3C)cc(-c3cnn(C)c3C)c12 [Example 12, (R)-4-(4-(1,5-dimethyl-1H-pyrazol-4-yl)-5-methyl-7-(1H-pyrazol-5-yl)imidazo[1,5-b]pyridazin-2-yl)-3-methylmorpholine]	1	28	19.6	–	–	–	–	–
Cc1nn(C)cc1-c1cc(N2CCOC[C@H]2C)nn2c(-c3ccn[nH]3)nc(C)c12 [Example 13, (R)-4-(4-(1,3-dimethyl-1H-pyrazol-4-yl)-5-methyl-7-(1H-pyrazol-5-yl)imidazo[1,5-b]pyridazin-2-yl)-3-methylmorpholine]	14	33.2	46.5	–	–	–	–	–
Cc1nc(-c2ccn[nH]2)n2nc(N3CCOC[C@H]3C)cc(-c3ccccc3F)c12 [Example 14, (R)-4-(4-(2-fluorophenyl)-5-methyl-7-(1H-pyrazol-5-yl)imidazo[1,5-b]pyridazin-2-yl)-3-methylmorpholine]	10	32	26.2	78700	77300	10800	3.75	–
Cc1ccc(-c2cc(N3CCOC[C@H]3C)nn3c(-c4ccn[nH]4)nc(C)c23)cn1 [Example 17, (R)-3-methyl-4-(5-methyl-4-(6-methylpyridin-3yl)-7-(1H-pyrazol-5-yl)imidazo[1,5-b]pyridazin-2-yl)morpholine]	18	45.8	49.1	–	–	–	–	–
Cc1nc(-c2ccn[nH]2)n2nc(N3CCOC[C@H]3C)cc(-c3ccncc3F)c12 [Example 18, (R)-4-(4-(3-fluoropyridin-4-yl)-5-methyl-7-(1H-pyrazol-5-yl)imidazo[1,5-b]pyridazin-2-yl)-3-methylmorpholine]	10	28	41.8	–	–	–	–	47.2
C[C@@H]1COCCN1c1cc(-c2ccnn2C)c2c(F)nc(-c3ccn[nH]3)n2n1 [Example 20, (R)-4-(5-fluoro-4-(1-methyl-1H-pyrazol-5-yl)-7-(1H-pyrazol-5-yl)imidazo[1,5-b]pyridazin-2-yl)-3-methylmorpholine]	41	89.9	79.1	–	–	–	–	–
C[C@@H]1COCCN1c1nc(-c2ccnn2C)c2cnc(-c3cc[nH]n3)n2n1 [Example 27, (R)-3-methyl-4-(4-(1-methyl-1H-pyrazol-5-yl)-7-(1H-pyrazol-3-yl)imidazo[5,1-f][1,2,4]triazin-2-yl)morpholine]	–	68.3	110	–	–	–	–	–

More lines, in order of falling IC50 [2], values ahead:

IC50 [1] [nM]	IC50 [2] [nM]	IC50 ([3]; Homo sapiens, LoVo, 96 h) [nM]	AUC(0-inf) [4] [ng·h/mL]	AUC(0-t) [4] [ng·h/mL]	Cmax [4] [ng/mL]	half-life [4] [h]	IC50 [3] [nM]	SMILES
2	27.3	49.5	–	–	–	–	–	Cc1ccccc1-c1cc(N2CCOC[C@H]2C)nn2c(-c3ccn[nH]3)nc(C)c12 [Example 3, (R)-3-methyl-4-(5-methyl-7-(1H-pyrazol-5-yl)-4-(o-tolyl)imidazo[1,5-b]pyridazin-2-yl)morpholine]
6	24.1	22.4	42900	42800	7340	2.65	–	C[C@@H]1COCCN1c1cc(-c2ccnn2C)c2c(Cl)nc(-c3ccn[nH]3)n2n1 [Example 21, (R)-4-(5-chloro-4-(1-methyl-1H-pyrazol-5-yl)-7-(1H-pyrazol-5-yl)imidazo[1,5-b]pyridazin-2-yl)-3-methylmorpholine]
3	21.9	43.6	–	–	–	–	–	CCn1nccc1-c1cc(N2CCOC[C@H]2C)nn2c(-c3ccn[nH]3)nc(C)c12 [Example 2, (R)-4-(4-(1-ethyl-1H-pyrazol-5-yl)-5-methyl-7-(1H-pyrazol-5-yl)imidazo[1,5-b]pyridazin-2-yl)-3-methylmorpholine]
3	17.8	25.5	31700	30800	8930	3.42	–	Cc1nc(-c2ccn[nH]2)n2nc(N3CCOC[C@H]3C)cc(-c3cccnc3C(F)(F)F)c12 [Example 5, (R)-3-methyl-4-(5-methyl-7-(1H-pyrazol-5-yl)-4-(2-(trifluoromethyl)pyridin-3-yl)imidazo[1,5-b]pyridazin-2-yl)morpholine]
1	15.7	24.6	–	–	–	–	–	Cc1nc(-c2ccn[nH]2)n2nc(N3CCOC[C@H]3C)cc(C3CCOCC3)c12 [Example 7, (R)-3-methyl-4-(5-methyl-7-(1H-pyrazol-5-yl)-4-(tetrahydro-2H-pyran-4-yl)imidazol[1,5-b]pyridazin-2-yl)morpholine]
4	14.9	17.9	–	–	–	–	–	Cc1cc(-c2nc(C)c3c(-c4ccnn4C)cc(N4CCOC[C@H]4C)nn23)[nH]n1 [Example 8, (R)-3-methyl-4-(5-methyl-4-(1-methyl-1H-pyrazol-5-yl)-7-(3-methyl-1H-pyrazol-5-yl)imidazo[1,5-b]pyridazin-2-yl)morpholine]
3	13	26.9	44000	43400	9010	3.2	–	Cc1ncccc1-c1cc(N2CCOC[C@H]2C)nn2c(-c3ccn[nH]3)nc(C)c12 [Example 4, (R)-3-methyl-4-(5-methyl-4-(2-methylpyridin-3-yl)-7-(1H-pyrazol-5-yl)imidazo[1,5-b]pyridazin-2-yl)morpholine]
6	12.5	19.5	–	–	–	–	–	Cc1cc(S(C)(=O)=O)ccc1-c1cc(N2CCOC[C@H]2C)nn2c(-c3ccn[nH]3)nc(C)c12 [Example 15, (R)-3-methyl-4-(5-methyl-4-(2-methyl-4-(methylsulfonyl)phenyl)-7-(1H-pyrazol-5-yl)imidazo[1,5-b]pyridazin-2-34)morpholine]
9	12.5	17.6	–	–	–	–	–	Cc1nc(-c2ccn[nH]2)n2nc(N3CCOC[C@H]3C)cc(-c3cccnc3F)c12 [Example 16, (R)-4-(4-(2-fluoropyridin-3-yl)-5-methyl-7-(1H-pyrazol-5-yl)imidazo[1,5-b]pyridazin-2-yl)-3-methylmorpholine]
